Patent US20240215582A1, “METHODS OF CONTROLLING PLANT PATHOGENS” (Valent BioSciences LLC, priority 2022, published 2024)
Like-named read-outs stand apart in the source and are kept apart here.

Assays:
Botrytis cinerea = test: In vitro growth on cervinomycin-amended growth media; assay type: cell-based
Podosphaera xanthii = test: Host plant efficacy assay (cucumber); assay type: in vivo
[1] = tested on: Pseudoperonospora cubensis; test: Field and greenhouse trials (cucumber, squash); assay type: in vivo; settings: P. cubensis
Pyrenophora teres = test: Host plant efficacy assay (barley); assay type: in vivo
Rhynchosporium secalis = test: In vitro growth on cervinomycin-amended growth media; assay type: cell-based
Puccinia triticina = test: Host plant efficacy assay (wheat); assay type: in vivo
Zymoseptoria tritici [2] = test: In vitro growth on cervinomycin-amended growth media; assay type: cell-based
Phytophthora infestans = assay type: in vivo
Fusarium graminearum = assay type: cell-based
[3] = tested on: Pseudoperonospora cubensis; test: Foliar application, inoculated plants, disease severity; settings: for Disease severity P. cubensis Oct. 20, 2020: carrier control severity 70; for Disease severity P. cubensis Oct. 27, 2020: carrier control severity 79; for Disease severity P. cubensis Jul. 28, 2020: carrier control severity 67
Procedure: Biological efficacy assays utilizing cervinomycins were conducted on Pseudoperonospora cubensis and Botrytis cinerea. […] Once plants had dried they were inoculated with the pathogen, then were stored in a controlled climate chamber under high humidity for 4-6 days. At the end of the experiment disease severity was determined based on the percentage of plant tissue that was visually symptomatic.

[4] = tested on: Pseudoperonospora cubensis; test: Host plant efficacy assay (cucumber); assay type: in vivo
Erysiphe diffusa = test: Host plant efficacy assay (soybean); assay type: in vivo
Alternaria solani = test: Host plant efficacy assay (tomato); assay type: in vivo
Cochliobolus miyabeanus = test: In vitro growth on cervinomycin-amended growth media; assay type: cell-based
Phakopsora pachyrhizi = test: Host plant efficacy assay (soybean); assay type: in vivo
Sclerotinia sclerotiorum = test: Host plant efficacy assay (common bean); assay type: in vivo
Magnaporthe oryzae = assay type: in vivo
Plasmospora viticola = test: Efficacy on grape plants infected with Plasmospora viticola; settings: for % control Plasmospora viticola 1DAI: 1 day after infection; for % control Plasmospora viticola 1DAI / % control Plasmospora viticola 7DBI / % control Plasmospora viticola 1DB1: grape plants; for % control Plasmospora viticola 7DBI: 7 days before infection; for % control Plasmospora viticola 1DB1: 1 day before infection
Source text: Treatments occurred at either 1 day before infection (“1 DBI”), 7 days before infection (“7 DBI”) or 1 day after infection (“1 DAI”).

Phytophthora capsici = test: In vitro growth on cervinomycin-amended growth media; assay type: cell-based
Pythium ultimum = test: as above; assay type: cell-based
Zymoseptoria tritici [5] = test: Host plant efficacy assay (wheat); assay type: in vivo
Cladosporium carpophilum = test: In vitro growth on cervinomycin-amended growth media; assay type: cell-based
[6] = 500 ppm A2, untreated severity 34
[7] = 1000 ppm A2, untreated severity 34
[8] = 1500 ppm A2, untreated severity 34
[9] = 1 ppm foliar, vs carrier control
[10] = 3 ppm foliar, vs carrier control
[11] = 6 ppm foliar, vs carrier control
[12] = 12 ppm foliar, vs carrier control
[13] = 25 ppm foliar, vs carrier control
[14] = 30 ppm foliar, vs carrier control
[15] = 50 ppm foliar, vs carrier control

Structure (SMILES): COc1cc2oc3c(c(=O)c2cc1OC)C(=O)c1c(ccc2cc4c(c(O)c12)C(=O)N1CCOC1(C)C4)C3=O (centres unmarked) [Cervinomycin A2, cervinomycin A2]
- % Control Botrytis cinerea (Botrytis cinerea; 0.004 ppm in growth media): 3%
- % Control Botrytis cinerea (Botrytis cinerea; 0.016 ppm in growth media): 2%
- % Control Botrytis cinerea (Botrytis cinerea; 0.063 ppm in growth media): 70%
- % Control Botrytis cinerea (Botrytis cinerea; 0.25 ppm in growth media): 100%
- % Control Botrytis cinerea (Botrytis cinerea; 1 ppm in growth media): 100%
- % control Podosphaera xanthii Cucumber 1DBI (Podosphaera xanthii; 11.3 ppm): 0 (0 (about 0%))
- % control Podosphaera xanthii Cucumber 1DBI (Podosphaera xanthii; 45 ppm): 0 (0 (about 0%))
- % control Podosphaera xanthii Cucumber 1DBI (Podosphaera xanthii; 180 ppm): 0 (0 (about 0%))
- % Control [1, 6]: 27%
- Disease Severity [1, 6]: 25%
- % Control [1, 7]: 22%
- Disease Severity [1, 7]: 26%
- % Control [1, 8]: 44%
- Disease Severity [1, 8]: 19%
- % control Pyrenophora teres Barley 1DBI (Pyrenophora teres; 11.3 ppm): 0 (0 (about 0%))
- % control Pyrenophora teres Barley 1DBI (Pyrenophora teres; 45 ppm): 0 (0 (about 0%))
- % control Pyrenophora teres Barley 1DBI (Pyrenophora teres; 180 ppm): 0 (0 (about 0%))
- % Control Rhynchosporium secalis (Rhynchosporium secalis; 0.004 ppm in growth media): 21%
- % Control Rhynchosporium secalis (Rhynchosporium secalis; 0.016 ppm in growth media): 71%
- % Control Rhynchosporium secalis (Rhynchosporium secalis; 0.063 ppm in growth media): 98%
- % Control Rhynchosporium secalis (Rhynchosporium secalis; 0.25 ppm in growth media): 99%
- % Control Rhynchosporium secalis (Rhynchosporium secalis; 1 ppm in growth media): 100%
- % control Puccinia triticina Wheat 6DBI (Puccinia triticina; 11.3 ppm): 0 (0 (about 0%))
- % control Puccinia triticina Wheat 6DBI (Puccinia triticina; 45 ppm): 0 (0 (about 0%))
- % control Puccinia triticina Wheat 6DBI (Puccinia triticina; 180 ppm): 0 (0 (about 0%))
- % Control Zymoseptoria tritici (Zymoseptoria tritici [2]; 0.004 ppm in growth media): 1%
- % Control Zymoseptoria tritici (Zymoseptoria tritici [2]; 0.016 ppm in growth media): 2%
- % Control Zymoseptoria tritici (Zymoseptoria tritici [2]; 0.063 ppm in growth media): 6%
- % Control Zymoseptoria tritici (Zymoseptoria tritici [2]; 0.25 ppm in growth media): 62%
- % Control Zymoseptoria tritici (Zymoseptoria tritici [2]; 1 ppm in growth media): 100%
- % control Phytophthora infestans Tomato 1DBI (Phytophthora infestans; 11.3 ppm): 0 (0 (about 0%))
- % control Phytophthora infestans Tomato 1DBI (Phytophthora infestans; 45 ppm): 0 (0 (about 0%))
- % control Phytophthora infestans Tomato 1DBI (Phytophthora infestans; 180 ppm): 3 (3 (about 70%))
- % Control Fusarium graminearum (Fusarium graminearum; 0.004 ppm in growth media): 8%
- % Control Fusarium graminearum (Fusarium graminearum; 0.016 ppm in growth media): 4%
- % Control Fusarium graminearum (Fusarium graminearum; 0.063 ppm in growth media): 9%
- % Control Fusarium graminearum (Fusarium graminearum; 0.25 ppm in growth media): 0%
- % Control Fusarium graminearum (Fusarium graminearum; 1 ppm in growth media): 14%
- Disease severity P. cubensis Oct. 20, 2020 ([3]; 1 ppm foliar): 52%
- Disease severity P. cubensis Oct. 27, 2020 ([3]; 1 ppm foliar): 7%
- percent control P. cubensis Oct. 20, 2020 [3, 9]: (26%)
- percent control P. cubensis Oct. 27, 2020 [3, 9]: 91%
- Disease severity P. cubensis Oct. 20, 2020 ([3]; 3 ppm foliar): 27%
- Disease severity P. cubensis Oct. 27, 2020 ([3]; 3 ppm foliar): 7%
- percent control P. cubensis Oct. 20, 2020 [3, 10]: (61%)
- percent control P. cubensis Oct. 27, 2020 [3, 10]: 91%
- Disease severity P. cubensis Oct. 20, 2020 ([3]; 6 ppm foliar): 16%
- Disease severity P. cubensis Oct. 27, 2020 ([3]; 6 ppm foliar): 2%
- percent control P. cubensis Oct. 20, 2020 [3, 11]: (77%)
- percent control P. cubensis Oct. 27, 2020 [3, 11]: 98%
- Disease severity P. cubensis Oct. 20, 2020 ([3]; 12 ppm foliar): 3%
- Disease severity P. cubensis Oct. 27, 2020 ([3]; 12 ppm foliar): 1%
- percent control P. cubensis Oct. 20, 2020 [3, 12]: (95%)
- percent control P. cubensis Oct. 27, 2020 [3, 12]: 99%
- Disease severity P. cubensis Jul. 28, 2020 ([3]; 15 ppm foliar): 28%
- percent control P. cubensis Jul. 28, 2020 ([3]; 15 ppm foliar, vs carrier control): 58%
- Disease severity P. cubensis Oct. 20, 2020 ([3]; 25 ppm foliar): 4%
- Disease severity P. cubensis Oct. 27, 2020 ([3]; 25 ppm foliar): 1%
- percent control P. cubensis Oct. 20, 2020 [3, 13]: (94%)
- percent control P. cubensis Oct. 27, 2020 [3, 13]: 99%
- Disease severity P. cubensis Jul. 28, 2020 ([3]; 30 ppm foliar): 10%
- Disease severity P. cubensis Jul. 14, 2020 ([3]; 30 ppm foliar, carrier control severity 98): 73%
- percent control P. cubensis Jul. 14, 2020 [3, 14]: 26%
- percent control P. cubensis Jul. 28, 2020 [3, 14]: 85%
- Disease severity P. cubensis Oct. 20, 2020 ([3]; 50 ppm foliar): 7%
- Disease severity P. cubensis Oct. 27, 2020 ([3]; 50 ppm foliar): 2%
- percent control P. cubensis Oct. 20, 2020 [3, 15]: (89%)
- percent control P. cubensis Oct. 27, 2020 [3, 15]: 98%
- Disease severity P. cubensis Jul. 28, 2020 ([3]; 60 ppm foliar): 18%
- percent control P. cubensis Jul. 28, 2020 ([3]; 60 ppm foliar, vs carrier control): 73%
- control of Pseudoperonospora cubensis (summary of Table 3) ([3]; foliar application): significant control
- % control Pseudoperonospora cubensis Cucumber 1DBI ([4]; 11.3 ppm): 0 (0 (about 0%))
- % control Pseudoperonospora cubensis Cucumber 1DBI ([4]; 45 ppm): 0 (0 (about 0%))
- % control Pseudoperonospora cubensis Cucumber 1DBI ([4]; 180 ppm): 3 (3 (about 70%))
- % control Erysiphe diffusa Soybean 2DAI (Erysiphe diffusa; 11.3 ppm): 0 (0 (about 0%))
- % control Erysiphe diffusa Soybean 2DAI (Erysiphe diffusa; 45 ppm): 0 (0 (about 0%))
- % control Erysiphe diffusa Soybean 2DAI (Erysiphe diffusa; 180 ppm): 0 (0 (about 0%))
- % control Alternaria solani Tomato 1DBI (Alternaria solani; 11.3 ppm): 0 (0 (about 0%))
- % control Alternaria solani Tomato 1DBI (Alternaria solani; 45 ppm): 0 (0 (about 0%))
- % control Alternaria solani Tomato 1DBI (Alternaria solani; 180 ppm): 0 (0 (about 0%))
- % Control Cochliobolus miyabeanus (Cochliobolus miyabeanus; 0.004 ppm in growth media): 0%
- % Control Cochliobolus miyabeanus (Cochliobolus miyabeanus; 0.016 ppm in growth media): 20%
- % Control Cochliobolus miyabeanus (Cochliobolus miyabeanus; 0.063 ppm in growth media): 49%
- % Control Cochliobolus miyabeanus (Cochliobolus miyabeanus; 0.25 ppm in growth media): 73%
- % Control Cochliobolus miyabeanus (Cochliobolus miyabeanus; 1 ppm in growth media): 87%
- % control Phakopsora pachyrhizi Soybean 3DAI (Phakopsora pachyrhizi; 11.3 ppm): 0 (0 (about 0%))
- % control Phakopsora pachyrhizi Soybean 4DBI (Phakopsora pachyrhizi; 11.3 ppm): 0 (0 (about 0%))
- % control Phakopsora pachyrhizi Soybean 3DAI (Phakopsora pachyrhizi; 45 ppm): 0 (0 (about 0%))
- % control Phakopsora pachyrhizi Soybean 4DBI (Phakopsora pachyrhizi; 45 ppm): 0 (0 (about 0%))
- % control Phakopsora pachyrhizi Soybean 3DAI (Phakopsora pachyrhizi; 180 ppm): 0 (0 (about 0%))
- % control Phakopsora pachyrhizi Soybean 4DBI (Phakopsora pachyrhizi; 180 ppm): 2 (2 (about 50%))
- % control Sclerotinia sclerotiorum Common bean 1DBI (Sclerotinia sclerotiorum; 11.3 ppm): 0 (0 (about 0%))
- % control Sclerotinia sclerotiorum Common bean 1DBI (Sclerotinia sclerotiorum; 45 ppm): 0 (0 (about 0%))
- % control Sclerotinia sclerotiorum Common bean 1DBI (Sclerotinia sclerotiorum; 180 ppm): 0 (0 (about 0%))
- % control Magnaporthe oryzae Rice 1DBI (Magnaporthe oryzae; 11.3 ppm): 0 (0 (about 0%))
- % control Magnaporthe oryzae Rice 1DBI (Magnaporthe oryzae; 45 ppm): 0 (0 (about 0%))
- % control Magnaporthe oryzae Rice 1DBI (Magnaporthe oryzae; 180 ppm): 0 (0 (about 0%))
- control of P. viticiola (summary of Table 1) (Plasmospora viticola; 13-800 ppm): significant control
- % control Plasmospora viticola 1DAI (Plasmospora viticola; 13 ppm): 0%
- % control Plasmospora viticola 7DBI (Plasmospora viticola; 13 ppm): 61%
- % control Plasmospora viticola 1DB1 (Plasmospora viticola; 50 ppm): 100%
- % control Plasmospora viticola 7DBI (Plasmospora viticola; 50 ppm): 91%
- % control Plasmospora viticola 1DAI (Plasmospora viticola; 200 ppm): 0%
- % control Plasmospora viticola 1DB1 (Plasmospora viticola; 200 ppm): 100%
- % control Plasmospora viticola 1DAI (Plasmospora viticola; 800 ppm): 5%
- % control Plasmospora viticola 1DB1 (Plasmospora viticola; 800 ppm): 100%
- % control Plasmospora viticola 7DBI (Plasmospora viticola; 800 ppm): 100%
- % Control Phytophthora capsici (Phytophthora capsici; 0.004 ppm in growth media): 4%
- % Control Phytophthora capsici (Phytophthora capsici; 0.016 ppm in growth media): 75%
- % Control Phytophthora capsici (Phytophthora capsici; 0.063 ppm in growth media): 90%
- % Control Phytophthora capsici (Phytophthora capsici; 0.25 ppm in growth media): 99%
- % Control Phytophthora capsici (Phytophthora capsici; 1 ppm in growth media): 100%
- % Control Pythium ultimum (Pythium ultimum; 0.004 ppm in growth media): 0%
- % Control Pythium ultimum (Pythium ultimum; 0.016 ppm in growth media): 13%
- % Control Pythium ultimum (Pythium ultimum; 0.063 ppm in growth media): 99%
- % Control Pythium ultimum (Pythium ultimum; 0.25 ppm in growth media): 96%
- % Control Pythium ultimum (Pythium ultimum; 1 ppm in growth media): 99%
- % control Zymoseptoria tritici Wheat 3DAI (Zymoseptoria tritici [5]; 11.3 ppm): 0 (0 (about 0%))
- % control Zymoseptoria tritici Wheat 4DBI (Zymoseptoria tritici [5]; 11.3 ppm): 0 (0 (about 0%))
- % control Zymoseptoria tritici Wheat 3DAI (Zymoseptoria tritici [5]; 45 ppm): 0 (0 (about 0%))
- % control Zymoseptoria tritici Wheat 4DBI (Zymoseptoria tritici [5]; 45 ppm): 0 (0 (about 0%))
- % control Zymoseptoria tritici Wheat 3DAI (Zymoseptoria tritici [5]; 180 ppm): 0 (0 (about 0%))
- % control Zymoseptoria tritici Wheat 4DBI (Zymoseptoria tritici [5]; 180 ppm): 0 (0 (about 0%))
- % Control Cladosporium carpophilum (Cladosporium carpophilum; 0.004 ppm in growth media): 0%
- % Control Cladosporium carpophilum (Cladosporium carpophilum; 0.016 ppm in growth media): 0%
- % Control Cladosporium carpophilum (Cladosporium carpophilum; 0.063 ppm in growth media): 46%
- % Control Cladosporium carpophilum (Cladosporium carpophilum; 0.25 ppm in growth media): 99%
- % Control Cladosporium carpophilum (Cladosporium carpophilum; 1 ppm in growth media): 99%
